From article PMC8129988 (Inorganic Chemistry Frontiers, 2021)
Read-outs that look alike come from different tables or passages of the source.

What was measured:
cyclic voltammetry = assay type: physicochemical; settings: DMF, 0.2 M [n-Bu4N][BF4], 1.5 mM complex, scan rate 100 mV s^-1
Method: Since the redox potential is a crucial characteristic for the activation of cobalt(III)-based prodrugs systems, we investigated the novel complexes by cyclic voltammetry in comparison to Co(acac)2LEGFR. Measurements were performed in dimethylformamide (DMF) (+0.2 M [n-Bu4N][BF4]) at a scan speed of 100 mV s^−1. […] Even at a higher scan speed of 1000 mV s^−1, the redox processes were still completely irreversible for all complexes (Fig. S5 ^†).
The compounds were dissolved in DMF (+0.2 M [n-Bu4N][BF4]) to obtain a final concentration of 1.5 mM. Electrochemical experiments were conducted on an EG&G PARC 273A potentiostat/galvanostat with a scan rate of 100–1000 mV s^−1 at room temperature. Argon was bubbled through the solution before every measurement to remove oxygen. A three-electrode configuration cell was used with a glassy carbon electrode as working electrode, which was polished before every measurement. The reference electrode was Ag/Ag^+/ACN (10 mM AgNO3) and the auxiliary electrode was a platinum wire. The potentials were referenced to an internal standard redox couple of ferrocenium/ferrocene and calculated to the NHE (E1/2 = +0.72 V vs. NHE).[63] […] Redox potentials measured relative to the Ag/AgCl/KCl (3.5 M) reference electrode and converted to the NHE using +0.205 V. Measurements were at least repeated three times and the mean values were calculated.

[1] = serum stability in fetal calf serum (HPLC-MS); assay type: in vitro ADME; settings: 37 °C
Method: Therefore, we only investigated the stability of the novel complexes in fetal calf serum (FCS). As reference again Co(acac)2LEGFR[26] was included. The complexes were dissolved in 50 mM phosphate puffer and mixed 1 : 10 with fetal calf serum (FCS; buffered with 150 mM phosphate buffer to keep a stable pH of 7.4) to a final concentration of 50 μM. The samples were incubated at 37 °C and after 0, 2, 4, 6, 24 and 26 h extracted with acetonitrile and measured by HPLC-MS. […] This indeed confirms, that by avoiding the direct attachment of the ethylenediamine moiety to an aromatic ring system, complexes with much higher stability can be generated. Since no distinct difference in stability between Co(acac)2LPon and Co(Meacac)2LPon within 26 h could be observed, measurements were repeated up to 72 h.
For serum stability measurements, 135 μL FCS, buffered with 150 mM phosphate (Na2HPO4/NaH2PO4) to maintain a pH value of 7.4, were mixed with 15 μL of a 500 μM stock solution of the respective complex in 50 mM phosphate buffer to reach a final concentration of 50 μM. The samples were incubated at 37 °C. At different time points to 20 μL serum 40 μL of ACN were added. After vigorously shaking for 2 min the suspension was centrifuged at 6000 rpm for 10 min. The supernatant was taken with a syringe and directly measured via HPLC-MS. The samples were analyzed on an Agilent 1260 Infinity system using a Waters Atlantis T3 column (150 mm × 4.6 mm) coupled to a Bruker Amazon SL ESI-IT mass spectrometer. Water and acetonitrile (both containing 0.1% formic acid) were used as eluents with a gradient of 1–99% acetonitrile within 29 min.

K-562 cells = assay: cell-associated LPon fluorescence by flow cytometry (ligand release); assay type: cell-based, human; settings: 24 h, 10 μM, normoxic
Method: Prior to the evaluation of the anticancer activity of our novel derivatives in cell culture models, we examined the stability of Co(acac)2LPon and Co(Meacac)2LPon in the presence of cells under normoxic conditions. The stability was determined by the appearance of LPon-associated fluorescence (vide supra) in BCR-ABL-driven K-562 leukemia cells via flow cytometry. […] Despite significant LPon-release from the two complexes over time (up to 24 h), in case of Co(Meacac)2LPon cell-associated fluorescence remained more than 7.5-fold lower after 24 h as compared to the free ligand.
Next, the impact of hypoxia on the stability of our novel derivatives was evaluated by monitoring intracellular fluorescence intensities under normoxic (21% O2) vs. hypoxic (0.1% O2) conditions. […] Hypoxic fluorescence activation in case of both cobalt(III) complexes was time-dependent, reaching significance after 6 h of compound incubation and resulting in 2- to 4-fold higher intensities.
Cells were seeded (1 × 10^6 cells per well) in 96-well plates, dissolved compounds were added and cells were incubated under normoxic or hypoxic cell culture conditions. Samples were measured on a BD LSRFortessa X-20 cell analyzer high throughput sampler (HTS) (BD Biosciences, East Rutherford, NJ, USA). Compound fluorescence was detected using 405 nm excitation and pacific blue (450/50 nm) band pass emission filters. […]

A431 = settings: cited from earlier work
H1975 = settings: cited from earlier work
ABL1 = ABL1 (Homo sapiens, UniProt P00519); assay: cell-free kinase inhibition assay (Z'-LYTE, SelectScreen); assay type: biochemical; settings: 10-fold excess of ATP, 1% DMSO, read-out: IC50 against ABL1
Sequence of ABL1 (P00519 whole entry): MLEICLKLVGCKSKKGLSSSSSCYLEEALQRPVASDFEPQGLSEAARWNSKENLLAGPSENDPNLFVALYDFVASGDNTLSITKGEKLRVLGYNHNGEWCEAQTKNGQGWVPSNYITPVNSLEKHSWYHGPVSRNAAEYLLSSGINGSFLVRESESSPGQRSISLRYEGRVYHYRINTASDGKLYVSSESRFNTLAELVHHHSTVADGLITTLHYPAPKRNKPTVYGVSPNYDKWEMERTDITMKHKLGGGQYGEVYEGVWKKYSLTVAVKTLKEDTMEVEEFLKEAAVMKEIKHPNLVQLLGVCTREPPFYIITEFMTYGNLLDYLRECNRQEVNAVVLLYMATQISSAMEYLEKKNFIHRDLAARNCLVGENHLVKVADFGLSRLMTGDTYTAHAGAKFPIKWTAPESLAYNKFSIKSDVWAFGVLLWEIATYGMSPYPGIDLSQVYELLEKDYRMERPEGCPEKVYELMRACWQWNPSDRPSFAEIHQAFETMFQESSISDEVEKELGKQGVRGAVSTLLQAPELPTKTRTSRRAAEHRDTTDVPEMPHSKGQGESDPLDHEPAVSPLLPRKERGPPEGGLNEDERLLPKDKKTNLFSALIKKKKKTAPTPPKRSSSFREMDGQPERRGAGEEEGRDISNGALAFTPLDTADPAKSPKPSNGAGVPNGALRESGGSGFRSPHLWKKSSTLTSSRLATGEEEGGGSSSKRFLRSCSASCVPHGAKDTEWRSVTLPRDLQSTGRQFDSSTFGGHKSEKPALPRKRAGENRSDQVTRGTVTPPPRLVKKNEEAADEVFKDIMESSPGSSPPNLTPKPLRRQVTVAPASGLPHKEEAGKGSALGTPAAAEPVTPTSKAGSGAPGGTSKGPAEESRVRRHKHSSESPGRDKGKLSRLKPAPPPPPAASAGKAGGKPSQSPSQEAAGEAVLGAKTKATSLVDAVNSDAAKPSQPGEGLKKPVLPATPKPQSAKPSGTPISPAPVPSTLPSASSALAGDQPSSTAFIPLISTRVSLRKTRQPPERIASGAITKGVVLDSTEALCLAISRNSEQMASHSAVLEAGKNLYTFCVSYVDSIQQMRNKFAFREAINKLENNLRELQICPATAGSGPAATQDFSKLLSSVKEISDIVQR
Description: (§1) The test compounds were screened in a final concentration of 1% DMSO using the Z′-LYTE® Assay.

FGFR1 = FGFR1 (Homo sapiens, UniProt P11362); assay: as above; assay type: biochemical
Sequence of FGFR1 (P11362 22-822): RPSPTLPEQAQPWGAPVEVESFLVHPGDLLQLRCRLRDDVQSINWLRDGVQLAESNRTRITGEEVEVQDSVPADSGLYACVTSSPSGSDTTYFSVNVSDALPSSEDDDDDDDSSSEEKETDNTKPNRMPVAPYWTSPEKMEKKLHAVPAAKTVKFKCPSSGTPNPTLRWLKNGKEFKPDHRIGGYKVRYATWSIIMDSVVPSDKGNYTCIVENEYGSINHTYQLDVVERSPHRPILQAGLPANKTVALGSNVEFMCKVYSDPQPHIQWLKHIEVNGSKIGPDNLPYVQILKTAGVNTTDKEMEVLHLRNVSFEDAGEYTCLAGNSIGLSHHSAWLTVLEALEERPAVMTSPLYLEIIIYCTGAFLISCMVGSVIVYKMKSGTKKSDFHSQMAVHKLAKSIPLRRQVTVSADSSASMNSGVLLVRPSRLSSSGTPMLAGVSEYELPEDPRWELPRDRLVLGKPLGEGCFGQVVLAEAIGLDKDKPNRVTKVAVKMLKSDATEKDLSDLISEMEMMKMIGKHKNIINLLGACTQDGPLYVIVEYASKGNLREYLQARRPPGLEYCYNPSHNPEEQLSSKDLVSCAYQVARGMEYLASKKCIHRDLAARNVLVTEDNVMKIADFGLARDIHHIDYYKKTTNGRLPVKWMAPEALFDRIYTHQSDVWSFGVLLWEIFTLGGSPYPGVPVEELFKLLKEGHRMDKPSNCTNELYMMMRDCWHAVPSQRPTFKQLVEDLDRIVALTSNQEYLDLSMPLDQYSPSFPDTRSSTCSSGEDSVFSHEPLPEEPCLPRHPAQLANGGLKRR
Description: as §1

[2] = tested on: BCR-ABL-positive K-562 leukemic cells; assay: MTT vitality assay, 72 h, normoxic vs hypoxic; assay type: cell-based; settings: Homo sapiens, K562, 72 h, printed in picture Fig. 9A, read-out: IC50, K-562 cell viability
Method: In case of hypoxic cell culture conditions, plated and treated cells were incubated at 37 °C, 5% CO2 and 0.1% O2 (ProOx Model C21 system, BioSpherix) in humidified incubators for the indicated time point before analysis. All investigated compounds were dissolved in dimethyl sulfoxide (DMSO) as 10 mM stock solutions and were stored at −20 °C. Dilutions in culture media supplemented with 10% fetal calf serum were made immediately before the experiments at the indicated concentrations. Corresponding dilutions of DMSO were used as untreated vehicle controls.
Cells were seeded (3–7 × 10^4 cells per well) in 96-well plates and after 24 h recovery treated with increasing concentrations of compounds in triplicates. After 72 h drug exposure under normoxic or hypoxic cell culture conditions (0.1% O2) (ProOx Model C21 system, BioSpherix), the proportion of viable cells was determined by 3-(4,5-dimethylthiazol-2-yl)-2,5-diphenyltetrazolium bromide (MTT)-vitality assay (EZ4U, Biomedica, Vienna, Austria) or by luminescence assay based on adenosine triphosphate quantification (CellTiter-Glo, Promega, Madison, Wisconsin) following the manufacturer's recommendations. […] MTT-derived cytotoxicity was expressed as IC50 values calculated from full dose–response curves using GraphPad Prism software (La Jolla, CA).

UM-UC-14 cells = assay: ligand release by UV fluorescence microscopy; assay type: cell-based, human; settings: 10 μM, 24 h, UM-UC-14, fluorescence microscopy
Method: The enhanced stability of Co(acac)2LPon under normoxia and its hypoxia-induced ligand release was subsequently confirmed by fluorescence microscopy. Fluorescence intensities indicated a ∼2.8-fold decreased stability of the cobalt(III) complex under hypoxic vs. normoxic cell culture conditions.
UM-UC-14 cells were seeded (2.5 × 10^5 cells per well) in 12-well plates and after 24 h recovery treated with 10 μM of compounds. After 24 h incubation, the drug solutions were removed, cells were washed with PBS and microphotographs of the different treatments were taken using UV fluorescence microscopy (Nikon Eclipse Ti2 microscope with a DAPI filter and a high-pressure mercury lamp) and a 20× objective. The level of cellular fluorescence was determined from fluorescence microscopy images using ImageJ software.
Figure S9: Ligand release of Co(acac)2LPon under normoxic and hypoxic cell culture conditions in comparison to LPon using UV fluorescence microscopy. UM-UC-14 cells were incubated with 10 µM of compounds for 24 h. Images of the different treatments were taken by UV fluorescence microcopy (20X objective) and the corrected total cell fluorescence was evaluated using ImageJ software. Data in Figure S9B are given as means ± SD of ten analyzed microphotographs per compound. Statistical significance was calculated by unpaired t test with p < .05(*). […]

[3] = tested on: p-ERK1/2 and p-S6 in K-562 cells; assay: western blot of downstream signalling, 12 h; assay type: cell-based, human; settings: K-562, 12 h, western blot
Method: Fig. 10 Impact of the cobalt(III) complexes on the ERK1/2 and S6 under normoxic and hypoxic conditions. K-562 cells were treated with the compounds, after 12 h cell lysates were prepared and protein expression as well as phosphorylation levels of downstream pathways (p-ERK1/2 and p-S6) analyzed by western blotting. One representative experiment out of three is shown. The ratio of phosphorylated to total protein is given between the respective lanes.
K-562 cells were plated (5 × 10^5 cells per well) in 6-well plates and allowed to recover for 24 h. Subsequently, the cells were treated with the drugs in different concentrations. After 12 h cells were harvested, proteins were isolated, resolved by sodium dodecyl sulfate polyacrylamide gel electrophoresis (SDS/PAGE), and transferred onto a polyvinylidene difluoride membrane for western blotting. The following antibodies were used: ERK1/2 (p44/42) rabbit monoclonal antibody (mAb) (137F5, #4695), phospho-ERK1/2 rabbit mAb (Thr202/Tyr204) (20G11, #4376), phospho-S6 rabbit pAb (Ser240/244, #2215) (Cell Signaling Technology, Beverly, MA, USA), S6 mouse mAb (C-8. #sc-74459) (Santa Cruz Biotechnology, TX, USA) and β-actin mouse mAb (#A5441, Sigma). All primary antibodies were used in 1 : 1000 dilutions (in Tris-buffered saline containing 0.1% Tween20 (TBST) + 3% bovine serum albumin (BSA)). Secondary goat anti-mouse-IgG (Fc specific)-peroxidase antibody (#A0168, Sigma) and horseradish peroxidase(HRP)-labeled mouse anti-rabbit IgG (#sc-2357, Santa Cruz Biotechnology) were used at working dilutions of 1 : 10 000 (in TBST + 1% BSA).

[4] = normoxic as well as hypoxic conditions

CC(=O)C(C)=C(C)[O-].CC(=O)C(C)=C(C)[O-].Cc1ccc(C(=O)Nc2ccc(CNCCN)c(C(F)(F)F)c2)cc1C#Cc1cnc2cccnn12.O=C(O)C(F)(F)F.[Co+3] [Co(Meacac)2LPon, Bis(3-methyl-2,4-pentanedionato) N-(4-(((2-aminoethyl)amino)methyl)-3-(trifluoromethyl)phenyl)-3-(imidazo[1,2-b]pyridazin-3-ylethynyl)-4-methylbenzamide cobalt(III) 2,2,2-trifluoroacetate]
cathodic peak potential (Co(III) to Co(II), irreversible) (cyclic voltammetry): −442 mV vs. NHE
intact complex remaining in FCS ([1]; 26 h, pH 7.4, 50 μM): ~90%
intact compound remaining in FCS ([1]; 72 h, pH 7.4): ~80%
cell-associated fluorescence, fold lower than the free ligand (K-562 cells): more than 7.5 fold

[Cl-].[Cl-].[Co+2] [CoCl2]
cytotoxic activity (A431): no significant cytotoxic activity
cytotoxic activity (H1975): no significant cytotoxic activity

Cc1ccc(C(=O)Nc2ccc(CNCCN)c(C(F)(F)F)c2)cc1C#Cc1cnc2cccnn12 [LPon, N-(4-(((2-Aminoethyl)amino)methyl)-3-(trifluoromethyl)phenyl)-3-(imidazo[1,2-b]pyridazin-3 ylethynyl)-4-methylbenzamide·3TFA]
IC50 (ABL1): 1.93 nM
factor by which FGFR inhibition is weaker than ponatinib (FGFR1; cell-free IC50 ratio vs ponatinib): ~5
IC50 (FGFR1; cell-free, 10-fold excess of ATP, 1% DMSO, read-out: IC50 against FGFR1): 25.9 nM
IC50 ([2]; hypoxic (H, 0.1% O2)): 3.67 nM
IC50 ([2]; normoxic (N, 21% O2)): 4.57 nM
fluorescence intensity change (decreased stability) hypoxic vs. normoxic (UM-UC-14 cells): remained unaffected
activity on ERK1/2 and S6 phosphorylation, normoxic vs hypoxic [3]: equally active under the two oxygen conditions

CC(=O)[CH-]C(C)=O.CC(=O)[CH-]C(C)=O.NCCN.[Co+2] [[Co(II)(acac)2en]]
cytotoxic activity (A431; [4]): no significant cytotoxic activity
cytotoxic activity (H1975; [4]): no significant cytotoxic activity

CC(=O)[CH-]C(C)=O.CC(=O)[CH-]C(C)=O.F[P-](F)(F)(F)(F)F.NCCN.[Co+3] [[Co(III)(acac)2en]PF6]
cytotoxic activity (A431; [4]): no significant cytotoxic activity
cytotoxic activity (H1975; [4]): no significant cytotoxic activity
